Test results: ChEMBL document CHEMBL6109114, “Design, synthesis, and biological evaluation of 4-(2-fluorophenoxy)pyridine derivatives as novel FLT3-ITD inhibitors” (Eur J Med Chem, 2025)
Active and inactive are the calls of the source. The rule behind the calls is not given here.

What was measured:
[1] = molecular target: T1, Cyclin-dependent kinase 5/CDK5 activator 1 (Homo sapiens) (UniProt Q00535+Q15078); experiment: Inhibition of human CDK5/p25 at 1 uM by Eurofins-DiscoverX assay; format: protein-complex assay
[2] = tested on: MOLM-13; experiment: Induction of apoptosis in human MOLM-13 cells assessed as early apoptotic cells at 0.1 uM incubated for 48 hrs by Annexin V-FITC/PI staining based flow cytometry analysis (reference value: 4.93%); format: functional
[3] = Permeability of the compound incubated for 4 hrs by PAMPA method; format: ADME; settings: read-out: permeability
[4] = tested on: MOLM-13; experiment: Induction of cell cycle arrest in human MOLM-13 cells assessed as accumulation of cells at G2 phase at 0.1 uM incubated for 48 hrs (reference value: […]); format: functional
[5] = Metabolic stability in human liver microsomes assessed as intrinsic clearance at 1 uM measured up to 60 mins in presence of NADPH regenerating system by LC-MS/MS analysis; format: ADME, Microsome; settings: read-out: CLH
[6] = molecular target: CDK3/Cyclin E (Homo sapiens) (UniProt P24864+Q00526); experiment: Inhibition of human CDK3/CyclinE at 1 uM by Eurofins-DiscoverX assay; format: protein-complex assay
[7] = molecular target: Receptor-type tyrosine-protein kinase FLT3 (Homo sapiens) (UniProt P36888); experiment: Inhibition of FLT3 phosphorylation in human MOLM-13 cells measured after 2 hrs by Western blot analysis; format: cell-based; settings: dose 0.01-1 µM
[8] = tested on: MOLM-13; experiment: Induction of cell cycle arrest in human MOLM-13 cells assessed as accumulation of cells at G2 phase at 1 uM incubated for 48 hrs (reference value: […]); format: functional
[9] = molecular target: T2, Cyclin-dependent kinase 2/cyclin A (Homo sapiens) (UniProt P24941+P20248+P78396); experiment: Inhibition of human CDK2/CyclinA assessed as remaining activity at 1 uM by Eurofins-DiscoverX assay relative to control; format: protein-complex assay
[10] = tested on: BaF3; experiment: Antiproliferative activity against mouse BaF3 cells harbouring FLT3-ITD-D835Y mutant assessed as inhibition of cell growth measured after 3 days by celltiter-glo luminescent cell viability assay; format: functional, cell-based; settings: BaF3, 72 h
[11] = tested on: MOLM-13; experiment: Induction of apoptosis in human MOLM-13 cells assessed as early apoptotic cells at 1 uM incubated for 48 hrs by Annexin V-FITC/PI staining based flow cytometry analysis (reference value: 4.93%); format: functional
[12] = tested on: MOLM-13; experiment: Induction of apoptosis in human MOLM-13 cells assessed as early apoptotic cells at 0.3 uM incubated for 48 hrs by Annexin V-FITC/PI staining based flow cytometry analysis (reference value: 4.93%); format: functional
[13] = tested on: MOLM-13; experiment: Induction of cell cycle arrest in human MOLM-13 cells incubated for 48 hrs; format: functional, cell-based; settings: dose 0.1-1 µM
[14] = tested on: NCI-H441; experiment: Antiproliferative activity against non-FLT3 expressing human NCI-H441 cells assessed as inhibition of cell growth measured after 3 days by celltiter-glo luminescent cell viability assay; format: functional, cell-based; settings: NCI-H441, 72 h
[15] = Half life in mouse at 10 mg/kg, po; format: ADME, organism-based; settings: in vivo
[16] = tested on: MOLM-13; experiment: Induction of apoptosis in human MOLM-13 cells assessed as viable cells at 0.3 uM incubated for 48 hrs by Annexin V-FITC/PI staining based flow cytometry analysis (reference value: 91.9%); format: functional; settings: read-out: Activity
[17] = MRT (0 to t) in mouse at 5 mg/kg, iv; format: ADME, organism-based; settings: in vivo
[18] = molecular target: CDK4/Cyclin D3 (Homo sapiens) (UniProt P11802+P30281); experiment: Inhibition of human CDK4/cyclinD3 assessed as remaining activity at 1 uM by Eurofins-DiscoverX assay relative to control; format: protein-complex assay
[19] = Metabolic stability in Beagle dog liver microsomes assessed as half life at 1 uM measured up to 60 mins in presence of NADPH regenerating system by LC-MS/MS analysis; format: ADME, Canis lupus familiaris, Microsome
[20] = molecular target: T1, Cyclin-dependent kinase 5/CDK5 activator 1 (Homo sapiens); experiment: Inhibition of human CDK5/p25 assessed as remaining activity at 1 uM by Eurofins-DiscoverX assay relative to control; format: protein-complex assay
[21] = Cmax in mouse at 10 mg/kg, po; format: ADME, organism-based; settings: in vivo
[22] = tested on: BaF3; experiment: Antiproliferative activity against mouse BaF3 cells harbouring TEL-KIT assessed as inhibition of cell growth measured after 3 days by celltiter-glo luminescent cell viability assay; format: functional, cell-based; settings: BaF3, 72 h
[23] = MRT (0 to t) in mouse at 10 mg/kg, po; format: ADME, organism-based; settings: in vivo
[24] = molecular target: Vascular endothelial growth factor receptor 1 (Homo sapiens, UniProt P17948); experiment: Inhibition of FLT1 (unknown origin) using Fluorescein-Poly GT as substrate preincubated for 10 mins followed by substrate addition and measured after 30 mins in presence of ATP by mobility shift assay
[25] = tested on: MOLM-13; experiment: Induction of cell cycle arrest in human MOLM-13 cells assessed as accumulation of cells at G1 phase at 1 uM incubated for 48 hrs (reference value: 40.3%); format: functional
[26] = molecular target: T2, Cyclin-dependent kinase 2/cyclin A (Homo sapiens); experiment: Inhibition of human CDK2/CyclinA at 1 uM by Eurofins-DiscoverX assay; format: protein-complex assay

T1 sequence (Q00535 whole entry): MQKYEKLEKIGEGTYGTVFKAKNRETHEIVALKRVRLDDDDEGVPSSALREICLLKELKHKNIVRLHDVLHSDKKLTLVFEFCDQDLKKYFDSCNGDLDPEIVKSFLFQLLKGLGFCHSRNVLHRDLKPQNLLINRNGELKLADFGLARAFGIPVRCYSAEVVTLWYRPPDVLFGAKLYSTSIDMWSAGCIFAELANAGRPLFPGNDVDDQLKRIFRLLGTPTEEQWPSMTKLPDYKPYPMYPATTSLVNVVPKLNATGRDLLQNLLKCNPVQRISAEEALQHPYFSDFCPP
T1 sequence (Q15078 99-307 partner limits assumed): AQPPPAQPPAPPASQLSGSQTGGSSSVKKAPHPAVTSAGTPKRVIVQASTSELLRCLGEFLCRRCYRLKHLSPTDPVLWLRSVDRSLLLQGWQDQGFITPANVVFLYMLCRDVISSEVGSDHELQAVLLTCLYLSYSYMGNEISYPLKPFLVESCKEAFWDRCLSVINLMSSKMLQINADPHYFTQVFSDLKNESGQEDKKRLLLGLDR
Sequence of Receptor-type tyrosine-protein kinase FLT3 (Homo sapiens) (P36888 whole entry): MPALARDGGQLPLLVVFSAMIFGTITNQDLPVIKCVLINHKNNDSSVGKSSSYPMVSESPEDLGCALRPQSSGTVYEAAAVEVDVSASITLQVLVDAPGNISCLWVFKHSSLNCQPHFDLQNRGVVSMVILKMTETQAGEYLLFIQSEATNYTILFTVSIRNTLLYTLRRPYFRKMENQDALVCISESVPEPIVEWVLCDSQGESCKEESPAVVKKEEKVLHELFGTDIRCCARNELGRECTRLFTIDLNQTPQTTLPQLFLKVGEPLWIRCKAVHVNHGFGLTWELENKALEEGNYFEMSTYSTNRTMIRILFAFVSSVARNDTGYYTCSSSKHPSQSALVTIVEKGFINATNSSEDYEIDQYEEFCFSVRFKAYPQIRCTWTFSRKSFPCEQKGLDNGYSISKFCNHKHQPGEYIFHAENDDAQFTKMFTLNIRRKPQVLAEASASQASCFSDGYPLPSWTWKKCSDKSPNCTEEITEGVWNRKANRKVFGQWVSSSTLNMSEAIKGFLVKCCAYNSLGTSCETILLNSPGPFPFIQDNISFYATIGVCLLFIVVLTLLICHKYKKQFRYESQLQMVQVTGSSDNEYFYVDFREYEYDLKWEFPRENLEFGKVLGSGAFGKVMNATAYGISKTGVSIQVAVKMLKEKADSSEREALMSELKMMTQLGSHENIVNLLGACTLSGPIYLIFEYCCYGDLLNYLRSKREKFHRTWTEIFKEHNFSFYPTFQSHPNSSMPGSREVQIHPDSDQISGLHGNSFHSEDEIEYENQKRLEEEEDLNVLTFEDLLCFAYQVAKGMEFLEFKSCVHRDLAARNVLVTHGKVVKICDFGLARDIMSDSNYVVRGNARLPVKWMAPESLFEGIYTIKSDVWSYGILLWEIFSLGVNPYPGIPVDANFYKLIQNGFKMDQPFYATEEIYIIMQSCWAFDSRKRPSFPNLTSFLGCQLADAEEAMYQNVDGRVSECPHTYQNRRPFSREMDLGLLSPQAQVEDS
Sequence of CDK3/Cyclin E (Homo sapiens) (P24864 whole entry, looked up): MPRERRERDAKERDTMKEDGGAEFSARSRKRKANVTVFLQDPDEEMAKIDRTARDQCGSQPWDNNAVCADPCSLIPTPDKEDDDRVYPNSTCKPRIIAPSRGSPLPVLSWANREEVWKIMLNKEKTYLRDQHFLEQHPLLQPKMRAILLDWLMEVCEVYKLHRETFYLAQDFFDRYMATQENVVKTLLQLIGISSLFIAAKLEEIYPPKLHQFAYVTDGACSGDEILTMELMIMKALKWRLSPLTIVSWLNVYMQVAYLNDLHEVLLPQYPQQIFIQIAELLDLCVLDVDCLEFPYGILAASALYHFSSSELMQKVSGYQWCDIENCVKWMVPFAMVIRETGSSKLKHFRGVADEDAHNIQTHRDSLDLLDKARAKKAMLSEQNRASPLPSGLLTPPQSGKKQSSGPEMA
Sequence of CDK3/Cyclin E (Homo sapiens) (Q00526 whole entry, looked up): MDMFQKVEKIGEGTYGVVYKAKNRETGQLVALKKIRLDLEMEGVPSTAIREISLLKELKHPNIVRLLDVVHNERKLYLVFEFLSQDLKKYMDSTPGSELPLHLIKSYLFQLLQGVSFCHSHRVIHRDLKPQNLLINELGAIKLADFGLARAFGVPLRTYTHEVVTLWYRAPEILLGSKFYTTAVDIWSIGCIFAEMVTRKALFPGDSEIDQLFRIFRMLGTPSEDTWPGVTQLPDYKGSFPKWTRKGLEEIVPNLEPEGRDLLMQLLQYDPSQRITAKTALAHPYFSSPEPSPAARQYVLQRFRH
Sequence of Vascular endothelial growth factor receptor 1 (P17948 whole entry): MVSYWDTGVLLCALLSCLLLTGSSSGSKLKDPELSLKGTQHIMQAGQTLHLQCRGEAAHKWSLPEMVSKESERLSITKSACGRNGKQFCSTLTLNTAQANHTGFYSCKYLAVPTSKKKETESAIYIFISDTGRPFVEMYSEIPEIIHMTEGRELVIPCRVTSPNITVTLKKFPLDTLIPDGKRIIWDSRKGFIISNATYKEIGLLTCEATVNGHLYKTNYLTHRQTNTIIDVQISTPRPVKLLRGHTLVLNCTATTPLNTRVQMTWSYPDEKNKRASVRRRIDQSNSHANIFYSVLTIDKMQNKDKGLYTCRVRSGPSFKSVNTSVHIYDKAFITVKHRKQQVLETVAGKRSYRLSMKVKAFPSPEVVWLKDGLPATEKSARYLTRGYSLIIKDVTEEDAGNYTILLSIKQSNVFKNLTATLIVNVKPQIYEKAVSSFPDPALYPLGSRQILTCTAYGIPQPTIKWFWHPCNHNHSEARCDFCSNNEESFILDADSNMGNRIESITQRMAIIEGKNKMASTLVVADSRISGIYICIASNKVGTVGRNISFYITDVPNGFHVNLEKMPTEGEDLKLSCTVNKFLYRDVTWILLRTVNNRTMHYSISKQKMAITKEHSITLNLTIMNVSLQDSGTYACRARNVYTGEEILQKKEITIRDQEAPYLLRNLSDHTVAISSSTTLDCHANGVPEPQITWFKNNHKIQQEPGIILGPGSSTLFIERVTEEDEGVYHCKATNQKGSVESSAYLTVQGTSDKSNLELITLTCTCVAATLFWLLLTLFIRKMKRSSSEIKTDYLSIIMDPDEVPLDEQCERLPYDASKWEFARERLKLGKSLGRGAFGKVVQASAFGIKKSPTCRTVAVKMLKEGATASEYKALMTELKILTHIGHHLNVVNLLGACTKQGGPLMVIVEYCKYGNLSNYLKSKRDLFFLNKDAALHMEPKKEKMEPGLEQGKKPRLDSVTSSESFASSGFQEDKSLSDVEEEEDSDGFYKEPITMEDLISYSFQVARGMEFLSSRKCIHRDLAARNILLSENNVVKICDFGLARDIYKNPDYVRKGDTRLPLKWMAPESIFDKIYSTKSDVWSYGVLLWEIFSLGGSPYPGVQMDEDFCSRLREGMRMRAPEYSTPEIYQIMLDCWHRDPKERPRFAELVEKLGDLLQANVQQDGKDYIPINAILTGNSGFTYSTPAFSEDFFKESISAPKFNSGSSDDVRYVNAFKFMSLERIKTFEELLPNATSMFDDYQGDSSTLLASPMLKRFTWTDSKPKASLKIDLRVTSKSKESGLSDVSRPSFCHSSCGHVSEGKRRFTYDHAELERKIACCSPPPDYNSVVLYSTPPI

inhibition [1]: inactive
Papp at 4 h [3]: 0.86 ×10⁻⁶ cm/s
microsomal CLint at 1 µM [5]: 12.7 µL/min/mg
inhibition [6]: inactive
inhibition [7]: Dose-dependent-effect
Activity [9]: 88%
IC50 [10]: 6.6 µM
IC50 [14]: > 30 µM
half-life [15]: 1.83 h
MRT last [17]: 7.17 h
Activity [18]: 88%
half-life at 1 µM [19]: 2.1 h
Activity [20]: 88%
Cmax [21]: 306 ng/mL
IC50 [22]: > 10 µM
MRT last [23]: 3.37 h
IC50 [24]: 0.348 µM
inhibition [26]: inactive
SMILES: Cc1cc(=O)n(-c2cc(Cl)ccc2F)nc1C(=O)Nc1ccc(Oc2ccnc(NC(=O)N3CC(O)C3)c2)c(F)c1
Activity [2]: 5.69%
Activity [4]: 9.39%
Activity [8]: 0%
Activity [11]: 29.6%
Activity [12]: 13.4%
Activity [13]: Dose-dependent-effect
viability at 0.3 µM [16]: 74.2%
Activity [25]: 78.2%
